Marks after values point to notes of the source that are not given here.
Legend:
Set-up in all cases: species or system mouse
Settings in all cases: ABL001 60 mg/kg, Ponatinib 20 mg/kg, HQP1351 20 mg/kg
[1] = test system: E255V/T315I orthotopic tumor model; experiment: In vivo efficacy, E255V/T315I orthotopic tumor model
Experimental: (§1) In vivo efficacy was evaluated using the syngeneic mouse model derived from BaF3 cells with T315I and/or compound mutations. Tumor models were established by intravenously injecting tumor cells (1×10^5/mouse) into the caudal vein under sterile conditions. Mice were randomized into control and treatment groups with 8-10 mice per group and start the treatment from the second day post inoculation. The animal body weights were measured twice a week. The antitumor activity curves of test articles were plotted with the treatment time (day) on the X-axis, and corresponding survival rate on the Y-axis. A Log-rank (Mental-cox) test was employed to analyze the statistical significance of any difference between the treatment group and the control group. Prism version 7 (GraphPad Software Inc., San Diego, CA) was used for all statistical analysis and for graphic presentation.

[2] = test system: Y253H/T315I orthotopic tumor model; experiment: In vivo efficacy, Y253H/T315I orthotopic tumor model
Experimental: as §1

[3] = test system: T315I orthotopic tumor model; experiment: In vivo efficacy, T315I orthotopic tumor model
Experimental: as §1

[4] = test system: F317L/T315I orthotopic tumor model; experiment: In vivo efficacy, F317L/T315I orthotopic tumor model
Experimental: as §1

| Structure (SMILES) | Median survival [1] | Survival prolongation (%) [1] | Survive/Total @ D26 [1] | Median survival [2] | Survival prolongation (%) [2] | Survive/Total @ 24 [2] | Median survival [3] | Survival prolongation (%) [3] | Survive/Total @ D43 [3] | Median survival [4] | Survival prolongation (%) [4] | Survive/Total @ 24 [4] |
| --- | --- | --- | --- | --- | --- | --- | --- | --- | --- | --- | --- | --- |
| Cc1ccc(C(=O)Nc2ccc(CN3CCN(C)CC3)c(C(F)(F)F)c2)cc1C#Cc1cnc2cccnn12 [Ponatinib] | 24.5**** | 16.67% | 0/10 | 20.0** | 17.65% | 0/8 | 27.0**** | 28.57% | 0/10 | 27.0**** | 54.29% | 1/8 |
| O=C(Nc1ccc(OC(F)(F)Cl)cc1)c1cnc(N2CC[C@@H](O)C2)c(-c2cc[nH]n2)c1 [ABL001, asciminib] | 27.0**** | 28.57% | 0/10 | 21.0*** | 23.53% | 0/8 | 24.5**** | 16.67% | 0/10 | 18.0 | 2.86% | 0/8 |

Reference: patent publication US20230404998A1, “Combination Therapies for Treating Cancer” (ASCENTAGE PHARMA (SUZHOU) CO., LTD., priority 2020, published 2023)
